This note sets out measurements from article PMC4925259 (Molecular microbiology, 2016).

The target of the experiment is cytochrome bo oxidase (Escherichia coli, UniProt P0ABI8). The class given is biochemical.
Chain of cytochrome bo oxidase (P0ABI8 whole entry): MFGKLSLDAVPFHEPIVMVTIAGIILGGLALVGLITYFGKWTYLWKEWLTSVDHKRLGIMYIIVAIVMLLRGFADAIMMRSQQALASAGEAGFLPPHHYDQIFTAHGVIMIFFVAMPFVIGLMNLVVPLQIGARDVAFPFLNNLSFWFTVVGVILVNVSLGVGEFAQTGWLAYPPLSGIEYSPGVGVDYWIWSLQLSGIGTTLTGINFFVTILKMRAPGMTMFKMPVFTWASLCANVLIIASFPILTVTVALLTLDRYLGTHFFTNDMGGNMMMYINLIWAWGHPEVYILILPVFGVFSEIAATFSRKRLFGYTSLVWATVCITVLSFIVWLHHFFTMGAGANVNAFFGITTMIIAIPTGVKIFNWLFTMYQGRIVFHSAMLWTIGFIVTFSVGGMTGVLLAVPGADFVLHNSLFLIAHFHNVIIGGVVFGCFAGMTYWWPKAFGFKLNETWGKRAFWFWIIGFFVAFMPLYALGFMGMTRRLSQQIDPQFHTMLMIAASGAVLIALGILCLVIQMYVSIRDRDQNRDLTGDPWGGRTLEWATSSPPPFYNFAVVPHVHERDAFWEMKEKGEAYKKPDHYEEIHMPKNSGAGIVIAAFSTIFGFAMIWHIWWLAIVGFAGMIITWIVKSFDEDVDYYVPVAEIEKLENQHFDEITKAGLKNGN
Chain of cytochrome bo oxidase (P0ABJ1 25-315 partner): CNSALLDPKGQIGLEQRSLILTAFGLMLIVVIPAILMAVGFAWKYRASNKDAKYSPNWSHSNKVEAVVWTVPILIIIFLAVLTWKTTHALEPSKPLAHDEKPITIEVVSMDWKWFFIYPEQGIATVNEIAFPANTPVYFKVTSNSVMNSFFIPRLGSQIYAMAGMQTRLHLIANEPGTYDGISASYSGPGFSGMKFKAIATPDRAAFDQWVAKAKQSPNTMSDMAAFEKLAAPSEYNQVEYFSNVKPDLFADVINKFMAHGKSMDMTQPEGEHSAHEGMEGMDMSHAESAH
Chain of cytochrome bo oxidase (P0ABJ3 whole entry partner): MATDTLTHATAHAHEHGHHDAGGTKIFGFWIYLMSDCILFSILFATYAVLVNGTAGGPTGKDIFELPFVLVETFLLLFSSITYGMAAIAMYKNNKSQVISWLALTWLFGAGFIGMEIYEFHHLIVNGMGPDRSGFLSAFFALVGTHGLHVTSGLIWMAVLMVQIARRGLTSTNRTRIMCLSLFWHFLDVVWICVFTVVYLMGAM
Chain of cytochrome bo oxidase (P0ABJ6 whole entry partner): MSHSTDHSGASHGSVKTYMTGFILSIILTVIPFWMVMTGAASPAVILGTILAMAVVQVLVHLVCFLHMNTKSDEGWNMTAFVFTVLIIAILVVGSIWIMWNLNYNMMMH

Compound `S` [hydrogen sulfide] registered an IC50 of around 5 µM.

What is called IC50 is the midpoint of a concentration-inhibition curve. Low values mean greater potency in that assay, high ones weaker potency in that assay.
